Holding throughout (assay type): in vivo
One assay deals with L1210 Leukemia (CDF1). The experiment in a line: broad spectrum antitumor activity in mice, L1210 leukemia. As to conditions: IP/IP. The text has this: (§1) Broad Spectrum Antitumor Activity^* of 2-[2-(Diethylamino)ethyl]-7,10-dihydroxy-5-[[2-[(2-hydroxyethyl)amino]ethyl]amino]anthra[1-9-cd]pyrazol-6(2H)-one Dihydrochloride in Mice
The next assay deals with B16 Melanoma (B6C3F1). The experiment in a line: broad spectrum antitumor activity in mice, B16 melanoma (B6C3F1). The settings on record: I-/IP.
From the text: as §1

Another assay concerns Colon 38 (BDF1). The experiment in a line: broad spectrum antitumor activity in mice, Colon 38. The settings on record: SC/IP, Q01D × 09, Dose 16 mg/kg.
From the text: as §1

Another assay concerns ADJ—PC6 Plasmacytoma. The experiment in a line: broad spectrum antitumor activity in mice, ADJ-PC6 plasmacytoma. As to conditions: IP/IP.
From the text: as §1

As for `CCN(CC)CCn1nc2c3c(c(NCCNCCO)ccc31)C(=O)c1c(O)ccc(O)c1-2` [Example 28, 2-[2-(Diethylamino)ethyl]-7,10-dihydroxy-5-[[2-[(2-hydroxyethyl)amino]ethyl]amino]anthra[1,9-cd]pyrazol-6(2H)-one], the “T/C × 100 (Percent)” value was 137% in the assay on L1210 Leukemia (CDF1) (Q01D × 09, Dose 1 mg/kg); 144% with L1210 Leukemia (CDF1) (Q01D × 09, Dose 2 mg/kg); 178% with L1210 Leukemia (CDF1) (Q01D × 09, Dose 4 mg/kg); 240% with L1210 Leukemia (CDF1) (Q01D × 09, Dose 8 mg/kg); 133% with L1210 Leukemia (CDF1) (Q01D × 09, Dose 16 mg/kg); 148% in the assay on B16 Melanoma (B6C3F1) (Q01D × 09, Dose 3 mg/kg). Also, the “T/C × 100 (Percent)” value in the assay with B16 Melanoma (B6C3F1) (Q01D × 09, Dose 6 mg/kg) came out at 189%; with ADJ—PC6 Plasmacytoma (Q04D × 03, Dose 2 mg/kg), 207%; in the assay on ADJ—PC6 Plasmacytoma (Q04D × 03, Dose 4 mg/kg), 216%; with ADJ—PC6 Plasmacytoma (Q04D × 03, Dose 8 mg/kg), 235%; in the assay on ADJ—PC6 Plasmacytoma (Q04D × 03, Dose 16 mg/kg) it was 163%. Moreover, the “% Tumor Reduction” value in the assay with Colon 38 (BDF1) was 71%.

Values taken from patent EP0103381B1, “Substituted anthra(1,9-cd)pyrazol-6(2H)-ones” (WARNER-LAMBERT COMPANY, priority 1982, dated 1984).
